The source of these data is patent publication US11376254B2, “Positive allosteric modulators of the muscarinic acetylcholine receptor M4” (Vanderbilt University, priority 2017, dated 2022).

Usually Emax stands for the size of the effect at its maximum, as opposed to the concentration needed. The term EC50 denotes the midpoint of the concentration-response curve.

The conditions of series [1]: human, in vivo; cited from earlier work.
A further series has as its target T1, Human M4 (Homo sapiens, UniProt P08173).
T1 sequence (P08173 1-479): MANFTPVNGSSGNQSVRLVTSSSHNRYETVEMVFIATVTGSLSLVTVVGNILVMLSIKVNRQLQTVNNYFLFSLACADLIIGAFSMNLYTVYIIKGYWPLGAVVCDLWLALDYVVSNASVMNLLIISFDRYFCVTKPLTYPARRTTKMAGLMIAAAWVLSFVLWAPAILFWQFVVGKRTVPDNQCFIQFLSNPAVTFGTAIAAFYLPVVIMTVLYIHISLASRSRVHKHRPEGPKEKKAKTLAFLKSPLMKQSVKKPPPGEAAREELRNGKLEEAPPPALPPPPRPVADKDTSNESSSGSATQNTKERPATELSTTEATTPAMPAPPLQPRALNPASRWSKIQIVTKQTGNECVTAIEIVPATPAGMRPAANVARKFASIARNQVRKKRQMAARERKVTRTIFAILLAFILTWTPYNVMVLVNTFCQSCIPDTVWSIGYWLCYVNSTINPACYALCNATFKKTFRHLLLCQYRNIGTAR
In words: mAChR M4 cell-based functional assay (calcium flux, potentiation of ACh EC20 response). More on the design: Emax: dose or concentration left out as unconfirmed. (In general: Calcium assays in cells follow changes in intracellular calcium, usually with a dye or a luminescent sensor.)

Series [2] can be described thus: In vitro DMPK: rat fraction unbound in brain. As to conditions: read-out: Rat Fu (brain). It counts as in vitro ADME. As to the method: (§1) Compound 1 was tested in several in vitro assays to investigate both metabolism and pharmacokinetics. These assays were performed according to known methods as generally described in the following references: Conde-Ceide et al. ACS Med. Chem. Lett. 2015, 6, 716-720; Morris et al. J. Med. Chem. 2014, 57, 10192-10197; and Bubser et al. ACS Chem. Neurosci. 2014, 5, 920-942.

A short description of series [3]: In vitro DMPK: human predicted hepatic clearance. It counts as in vitro ADME. As to the method:
as §1

A short description of series [4]: In vitro DMPK: rat fraction unbound in plasma. It counts as in vitro ADME. The settings on record: read-out: Rat Fu (plasma). As to the method: as §1
The nature of series [5]: In vitro DMPK: human fraction unbound in plasma. It counts as in vitro ADME. The settings on record: read-out: Human Fu (plasma). As to the method:
as §1

Series [6] is described as follows: In vitro DMPK: rat predicted hepatic clearance. It counts as in vitro ADME. As to the method:
as §1

Series [7] is described as follows: In vivo DMPK in rat (plasma clearance, brain:plasma distribution). As to conditions: read-out: Rat CLp.
The conditions of series [8]: Alzheimer's disease patients; delusions, suspiciousness, vocal outbursts, hallucinations; cited from earlier work.
The conditions of series [9]: without causing catalepsy; cited from earlier work.

For the compound `Nc1c2c(nc3ccccc13)CCCC2` [tacrine], in series [1], the “patients with elevated liver transaminases (hepatotoxicity)” value was “about 30%”.
`Cc1c(C(F)F)nnc2sc3c(NCc4ccc(C(C)(C)O)cc4)ncnc3c12` [Compound 1, 2-(4-(((3-(Difluoromethyl)-4-methylpyrimido[4′,5′:4,5]thieno[2,3-c]pyridazin-8-yl)amino)methyl)phenyl)propan-2-ol]: the Emax at Human M4 worked out at 98.7%. For the same compound, the fraction unbound in [2] amounted to 0.006; in [4], 0.012; in [5], 0.01. For the same compound, the “Human Predicted CLhep (mL/min/kg) Method A” value in series [3] (Method A (first line)) is listed as 6.69 mL/min/kg; in [3] (second line also printed as Method A) it was 0.34 mL/min/kg. The “Rat Predicted CLhep (mL/min/kg) Method A” value in series [6] was 19.1 mL/min/kg. Also, the clearance in [7] stood at 2.67 mL/min/kg.
In the case of `Cc1c(C(F)F)nnc2sc3c(NCc4ccc(C5(O)CCC5)cc4)ncnc3c12` [Compound 9, 1-(4-(((3-(difluoromethyl)-4-methylpyrimido[4′,5′:4,5]thieno[2,3-c]pyridazin-8-yl)amino)methyl)phenyl)cyclobutan-1-ol], on Human M4, the EC50 came out at 809 nM and the Emax stood at 95.5%.
For `Cc1c(C(F)F)nnc2sc3c(N4CCOCC4)ncnc3c12` [Compound 6, 4-(3-(difluoromethyl)-4-methylpyrimido[4′,5′:4,5]thieno[2,3-c]pyridazin-8-yl)morpholine], on Human M4, the EC50 came out at 572 nM and the Emax came out at 72.2%.
For the compound `Cc1c(C(F)F)nnc2sc3c(NCc4ccc(C(C)(O)C5CC5)cc4)ncnc3c12` (stereo not shown) [Compound 10, 1-cyclopropyl-1-(4-(((3-(difluoromethyl)-4-methylpyrimido[4′,5′:4,5]thieno[2,3-c]pyridazin-8-yl)amino)methyl)phenyl)ethan-1-ol], at Human M4, the EC50 stood at 860 nM and the Emax came out at 95.5%.
On to `Cc1c(C(F)F)nnc2sc3c(N4CC5(COC5)C4)ncnc3c12` [Compound 4, 6-(3-(difluoromethyl)-4-methylpyrimido[4′,5′:4,5]thieno[2,3-c]pyridazin-8-yl)-2-oxa-6-azaspiro[3.3]heptane], for which, at Human M4, the EC50 is 84.1 nM and the Emax worked out at 82.7%.
For `Cc1c(C(F)F)nnc2sc3c(NC4CCCC4)ncnc3c12` [Compound 7, N-cyclopentyl-3-(difluoromethyl)-4-methylpyrimido[4′,5′:4,5]thieno[2,3-c]pyridazin-8-amine], in that order: 271 nM and 95.4%.
On the same counts, the results for `Cc1c(C(F)F)nnc2sc3c(N4CCCC4)ncnc3c12` [Compound 3, 3-(difluoromethyl)-4-methyl-8-(pyrrolidin-1-yl)pyrimido[4′,5′:4,5]thieno[2,3-c]pyridazine] are 238 nM and 83.5%.
As for `[2H]C([2H])(Nc1ncnc2c1sc1nnc(C(F)F)c(C)c12)c1ccc(C(C)(C)O)cc1` [Compound 8, 2-(4-(((3-(difluoromethyl)-4-methylpyrimido[4′,5′:4,5]thieno[2,3-c]pyridazin-8-yl)amino)methyl-d2)phenyl)propan-2-ol], at Human M4, the concentration for a half-maximal effect (EC50) was determined as 528 nM and the Emax was 95.8%.
As for `COc1ccc(CNc2ncnc3c2sc2nnc(C(F)F)c(C)c23)cc1F` [Compound 2, 3-(difluoromethyl)-N-(3-fluoro-4-methoxybenzyl)-4-methylpyrimido[4′,5′:4,5]thieno[2,3-c]pyridazin-8-amine], at Human M4, the EC50 was 581 nM and the Emax worked out at 79.8%.
With `CCCCCCOc1nsnc1C1=CCCN(C)C1` [xanomeline], the “effect on psychotic behavioral symptoms” value in series [8] is reported as “reduce psychotic behavioral symptoms”. Also, the “activity in animal models with profiles similar to known antipsychotic drugs” value in series [9] was “active in animal models”.
Turning to `Cc1c(C(F)F)nnc2sc3c(N4CC(CO)(CO)C4)ncnc3c12` [Compound 5, (1-(3-(difluoromethyl)-4-methylpyrimido[4′,5′:4,5]thieno[2,3-c]pyridazin-8-yl)azetidine-3,3-diyl)dimethanol], on Human M4, the EC50 turned out to be 1060 nM and the Emax was determined as 81.9%.
As for `Cc1ccccc1OC1CCN(c2ncnc3c2sc2nnc(C(F)F)c(C)c23)C1` (stereo not shown) [Compound 11, 3-(difluoromethyl)-4-methyl-8-(3-(o-tolyloxy)pyrrolidin-1-yl)pyrimido[4′,5′:4,5]thieno[2,3-c]pyridazine], at Human M4, the EC50 is above 10000 nM and the Emax was 68.7%.
